Measured values reported in US20040063721A1, “Agonism of the 5HT2A receptor for treatment of thermoregulatory dysfunction” (Wyeth, priority 2002, published 2004).
“Also recorded” adds a separate entry of the source.

System: morphine-dependent rat model of vasomotor instability
Test: Morphine-dependent naloxone-induced flush model (tail skin temperature)
Format: in vivo
Conditions: for effect on basal tail skin temperature prior to administration of naloxone: ovariectomized morphine-dependent rats, MDL-100907 0.3, 1 mg/kg, DOI 1 mg/kg, FIG. 1
[1] = Example 2, sc 20 min prior to naloxone, 5HT2c agonist 0.1, 3.0 mg/kg, 5HT2c antagonist 0.1, 1.0 mg/kg, FIG. 2
[2] = Example 1, sc 20 min prior to naloxone
[3] = Example 3, fluoxetine 10 mg/kg sc 1 h prior and/or WAY-100635 1 mg/kg sc 20 min prior to naloxone, FIG. 3

## Cc1cc2c(cc1Cl)N(C(=O)Nc1ccc(Oc3cccnc3C)nc1)CC2 [6-Chloro-5-methyl-1-[[2-[(2-methyl3-pyridyl)oxy]-5-pyridyl]carbamoyl]indoline]
[1]
  abatement of naloxone-induced flush (changes in TST, Δ°C, mean, over time): did not significantly abate naloxone-induced flush

## c1cc2c3c(c1)[C@H]1CCC[C@H]1N3CCNC2 [(7bR, 10aR)-1,2,3,4,8,9,10,10a-octahydro-7bH-cyclopenta[b][1,4]diazepino[6,7,1-hi]indole]
[1]
  abatement of naloxone-induced flush (changes in TST, Δ°C, mean, over time): did not significantly abate naloxone-induced flush

## COc1cc(CC(C)N)c(OC)cc1I.Cl (stereo not shown) [DOI, 1-(2,5-dimethoxy-4-iodophenyl)-2-aminopropane hydrochloride]
Example 1, DOI 1 mg/kg sc 20 min prior to naloxone, FIG. 1B, hydrochloride
  abatement of naloxone-induced flush (change in TST): preventing a naloxone-induced increase in tail-skin temperature; also recorded: significantly abated the naloxone-induced flush
[2]
  effect on basal tail skin temperature prior to administration of naloxone: without affecting basal tail skin temperature

## COc1cccc([C@H](O)C2CCN(CCc3ccc(F)cc3)CC2)c1OC [MDL-100907]
[2]
  effect on basal tail skin temperature prior to administration of naloxone: significantly induced an increase in tail skin temperature
Example 5, MDL-100907 0.01 or 0.1 mg/kg 55 min prior to naloxone, then fluoxetine 10 mg/kg + WAY-100635 0.01 mg/kg, 15 min post-naloxone, FIG. 5A
  effect on the combination drug abatement of the naloxone-induced flush at maximal flush: dose-dependently reversed
Example 5, MDL-100907 0.01 or 0.1 mg/kg 55 min prior to naloxone, then fluoxetine 10 mg/kg, 15 min post-naloxone, FIG. 5B
  effect on fluoxetine (10 mg/kg) action on naloxone-induced flush at maximal flush: potentiated
Example 5, MDL-100907 0.01 or 0.1 mg/kg prior to fluoxetine 30 mg/kg, FIG. 5C
  effect on fluoxetine (30 mg/kg) abatement of naloxone-induced hot flush: potentiated the abatement effect

## COc1ccccc1N1CCN(CCN(C(=O)C2CCCCC2)c2ccccn2)CC1 [WAY-100635, N-[2-[4-(2-Methoxyphenyl)-1-piperazinyl]ethyl]-N-2-pyridinylcyclohexanecarboxamide]
[3]
  abatement of naloxone-induced flush (changes in TST, Δ°C, mean, over time): did not significantly abate naloxone-induced flush
Rattus norvegicus, 0.25 h, Example 4, WAY-100635 0.01, 0.1 or 1.0 mg/kg sc combined with fluoxetine 10 mg/kg, 15 min post-naloxone, FIG. 4B, read-out: ED50 value, abatement of naloxone-induced flush at maximal flush
  ED50: 0.01 ± 0.009 mg/kg

## CNCCC(Oc1ccc(C(F)(F)F)cc1)c1ccccc1 (stereo not shown) [fluoxetine]
[3]
  abatement of naloxone-induced flush (changes in TST, Δ°C, mean, over time): did not significantly abate naloxone-induced flush
Example 5, fluoxetine 10 mg/kg sc
  abatement of naloxone-induced flush by fluoxetine alone: ineffective
Example 5, fluoxetine 30 mg/kg sc
  abatement of naloxone-induced hot flush by fluoxetine alone: abates a naloxone-induced hot flush
